{
  "source": "paper PMC9299640",
  "about": "“Incorporation of β‐Alanine in Cu(II) ATCUN Peptide Complexes Increases ROS Levels, DNA Cleavage and Antiproliferative Activity” (Chemistry (Weinheim an Der Bergstrasse, Germany), 2021)",
  "test": "Detection of hydroxyl radicals (TPA) and hydrogen peroxide (PBSF) by fluorescence spectroscopy",
  "format": "biochemical",
  "details": "40 μM complex or CuCl2, ascH− 1 mM, MOPS 50 mM pH 7.4, TPA 0.5 mM or PBSF 25 μM, up to 3.5 h, r.t.",
  "method": "To similarly confirm increased DNA cleavage as a result of enhanced ROS formation when introducing β‐Ala2 in the ATCUN motif, the ^•OH and H2O2 production was monitored. To follow the evolution of these species, the oxidation of terephthalate (TPA → HO‐TPA) by ^•OH[40] and the perhydrolysis of pentafluorobenzenesulfonyl fluorescein (PBSF) into fluorescein by H2O2 [40] were analyzed by fluorescence spectroscopy. In Figure 5, the kinetics of ^•OH and H2O2 production by complexes 1 (Gly2), 3 (β‐Ala2), 4 (β‐Ala2; Lys1/4) and CuCl2 are depicted.\nFigure 5 Kinetics of ^•OH (left) and H2O2 (right) production for 1, 3, 4 and CuCl2 (40 μM) in the presence of ascH^− (1 mM) in MOPS buffer (50 mM, pH 7.4) monitored by fluorescence evolution of HO‐TPA (λ ex 320 nm, λ em=428 nm) from TPA (0.5 mM), and fluorescein (λ ex=485 nm, λ em=513 nm) from PBSF (25 μM).\nS-8 Detection of hydroxyl radicals and hydrogen peroxide\nFor the identification of generated ROS by Cu(II) ATCUN complexes during DNA cleavage, gel electrophoresis was used for a ROS quenching experiment (Figure 4). Detection of hydroxyl radicals and hydrogen peroxide generated by metallonucleases was additionally performed by fluorescence spectroscopy.\nThe fluorescent dyes disodium terephthalate (TPA) and pentafluorobenzenesulfonyl fluorescein (PBSF) were used for the detection of hydroxyl radicals and hydrogen peroxide, respectively. […]",
  "data": [
    {"smiles": "[Cl][Cu][Cl]", "note": "[CuCl2, reference compound]", "values": [
      {"measurement": "catalytic ROS generation (•OH and H2O2 production, in words)", "value": "highest ^•OH and H2O2 formation"}
    ]}
  ]
}
